# Measured values as given in ChEMBL document CHEMBL3885861, “Open TG-GATES”.
# Species: Rattus norvegicus
# Assay: Open TG-GATES - Regimen: Single
# Format: toxicity, organism-based, Sprague-Dawley
# Parameters: regimen Single, gender Male, age 6 weeks
# Details: in vivo, po, 0 mg/kg, route gavage, dose level Control; for APTT / Bas / Eos / Fbg / Hb / Ht / Lym / MCH / MCHC / MCV / Mono / Neu / PT / Plat / RBC / Ret / WBC: tissue Blood; for KIDNEY_L / KIDNEY_R / KIDNEY_TOTAL: tissue Kidney; for LIVER: tissue Liver; for A/G / ALP / ALT / AST / BUN / CRE / Ca / Cl / DBIL / GLC / IP / K / LDH / Na / PL / RALB / TBIL / TC / TG / TP / gamma-GTP: tissue Plasma
compound,measurement,setting,value
C[C@H]1C(=O)O[C@@H]2CCN3CC=C(COC(=O)[C@](C)(O)[C@]1(C)O)[C@H]23 [MONOCROTALINE],TERMINAL_BW,3 h,217.7 g
same,APTT,3 h,20.3 s
same,Bas,3 h,0%
same,Eos,3 h,0.8%
same,Fbg,3 h,316 mg/dL
same,Hb,3 h,12.9 g/dL
same,Ht,3 h,37.7%
same,Lym,3 h,76.4%
same,MCH,3 h,21.8 pg
same,MCHC,3 h,34.2%
same,MCV,3 h,63.8 fL
same,Mono,3 h,3.2%
same,Neu,3 h,19%
same,PT,3 h,16.8 s
same,Plat,3 h,116.9 x10_4/uL
same,RBC,3 h,591.6 x10_4/ul
same,Ret,3 h,9.3%
same,WBC,3 h,86.4 x10_2/uL
same,KIDNEY_L,3 h,1 g
same,KIDNEY_R,3 h,1 g
same,KIDNEY_TOTAL,3 h,2 g
same,LIVER,3 h,10.4 g
same,A/G,3 h,1.3
same,ALP,3 h,1563.2 IU/L
same,ALT,3 h,38 IU/L
same,AST,3 h,66.8 IU/L
same,BUN,3 h,13.4 mg/dL
same,CRE,3 h,0.2 mg/dL
same,Ca,3 h,10.7 mg/dL
same,Cl,3 h,106.6 meq/L
same,DBIL,3 h,0.002 mg/dL
same,GLC,3 h,185.6 mg/dL
same,IP,3 h,8.3 mg/dL
same,K,3 h,4 meq/L
same,LDH,3 h,161 IU/L
same,Na,3 h,142.6 meq/L
same,PL,3 h,141.8 mg/dL
same,RALB,3 h,3.1 g/dL
same,TBIL,3 h,0.028 mg/dL
same,TC,3 h,78.2 mg/dL
same,TG,3 h,58.6 mg/dL
same,TP,3 h,5.4 g/dL
same,gamma-GTP,3 h,1 IU/L
same,TERMINAL_BW,6 h,200.2 g
same,APTT,6 h,20.2 s
same,Bas,6 h,0%
same,Eos,6 h,1%
same,Fbg,6 h,316 mg/dL
same,Hb,6 h,13.4 g/dL
same,Ht,6 h,39.5%
same,Lym,6 h,81%
same,MCH,6 h,21.5 pg
same,MCHC,6 h,33.9%
same,MCV,6 h,63.2 fL
same,Mono,6 h,2.8%
same,Neu,6 h,14.8%
same,PT,6 h,16.2 s
same,Plat,6 h,112.4 x10_4/uL
same,RBC,6 h,626.4 x10_4/ul
same,Ret,6 h,7.8%
same,WBC,6 h,94 x10_2/uL
same,KIDNEY_L,6 h,0.9 g
same,KIDNEY_R,6 h,0.9 g
same,KIDNEY_TOTAL,6 h,1.9 g
same,LIVER,6 h,8.5 g
same,A/G,6 h,1.3
same,ALP,6 h,1365.8 IU/L
same,ALT,6 h,37.6 IU/L
same,AST,6 h,71.6 IU/L
same,BUN,6 h,11.4 mg/dL
same,CRE,6 h,0.1 mg/dL
same,Ca,6 h,10.6 mg/dL
same,Cl,6 h,106.8 meq/L
same,DBIL,6 h,0.004 mg/dL
same,GLC,6 h,176 mg/dL
same,IP,6 h,9 mg/dL
same,K,6 h,4.2 meq/L
same,LDH,6 h,230.6 IU/L
same,Na,6 h,142.6 meq/L
same,PL,6 h,132.4 mg/dL
same,RALB,6 h,3.1 g/dL
same,TBIL,6 h,0.026 mg/dL
same,TC,6 h,75.2 mg/dL
same,TG,6 h,56 mg/dL
same,TP,6 h,5.5 g/dL
same,gamma-GTP,6 h,1.2 IU/L
same,TERMINAL_BW,9 h,207.2 g
same,APTT,9 h,19.8 s
same,Bas,9 h,0%
same,Eos,9 h,1%
same,Fbg,9 h,300.8 mg/dL
same,Hb,9 h,13.3 g/dL
same,Ht,9 h,38.8%
same,Lym,9 h,73%
same,MCH,9 h,21.4 pg
same,MCHC,9 h,34.2%
same,MCV,9 h,62.7 fL
same,Mono,9 h,2.6%
same,Neu,9 h,22.4%
same,PT,9 h,16.2 s
same,Plat,9 h,110.9 x10_4/uL
same,RBC,9 h,618.6 x10_4/ul
same,Ret,9 h,8.7%
same,WBC,9 h,92.3 x10_2/uL
same,KIDNEY_L,9 h,0.9 g
same,KIDNEY_R,9 h,1 g
same,KIDNEY_TOTAL,9 h,1.9 g
same,LIVER,9 h,8.6 g
same,A/G,9 h,1.3
same,ALP,9 h,1373.4 IU/L
same,ALT,9 h,38 IU/L
same,AST,9 h,67.8 IU/L
same,BUN,9 h,10.4 mg/dL
same,CRE,9 h,0.2 mg/dL
same,Ca,9 h,10.4 mg/dL
same,Cl,9 h,106.8 meq/L
same,DBIL,9 h,0.004 mg/dL
same,GLC,9 h,174.2 mg/dL
same,IP,9 h,9.1 mg/dL
same,K,9 h,4.1 meq/L
same,LDH,9 h,184.2 IU/L
same,Na,9 h,142 meq/L
same,PL,9 h,137 mg/dL
same,RALB,9 h,3.1 g/dL
same,TBIL,9 h,0.028 mg/dL
same,TC,9 h,83.2 mg/dL
same,TG,9 h,50.4 mg/dL
same,TP,9 h,5.4 g/dL
same,gamma-GTP,9 h,1 IU/L
same,TERMINAL_BW,24 h,221.9 g
same,APTT,24 h,22 s
same,Bas,24 h,0%
same,Eos,24 h,1%
same,Fbg,24 h,299 mg/dL
same,Hb,24 h,12.9 g/dL
same,Ht,24 h,37.9%
same,Lym,24 h,83%
same,MCH,24 h,20.8 pg
same,MCHC,24 h,34.1%
same,MCV,24 h,61.1 fL
same,Mono,24 h,2.8%
same,Neu,24 h,12.6%
same,PT,24 h,16.5 s
same,Plat,24 h,119.4 x10_4/uL
same,RBC,24 h,620.4 x10_4/ul
same,Ret,24 h,8.4%
same,WBC,24 h,85.2 x10_2/uL
same,KIDNEY_L,24 h,1 g
same,KIDNEY_R,24 h,1 g
same,KIDNEY_TOTAL,24 h,2 g
same,LIVER,24 h,10.5 g
same,A/G,24 h,1.3
same,ALP,24 h,1787.6 IU/L
same,ALT,24 h,44.4 IU/L
same,AST,24 h,74 IU/L
same,BUN,24 h,18.4 mg/dL
same,CRE,24 h,0.2 mg/dL
same,Ca,24 h,10.7 mg/dL
same,Cl,24 h,105 meq/L
same,DBIL,24 h,0.006 mg/dL
same,GLC,24 h,187.6 mg/dL
same,IP,24 h,6.8 mg/dL
same,K,24 h,4.2 meq/L
same,LDH,24 h,227.2 IU/L
same,Na,24 h,141.2 meq/L
same,PL,24 h,150.4 mg/dL
same,RALB,24 h,3.2 g/dL
same,TBIL,24 h,0.008 mg/dL
same,TC,24 h,78.2 mg/dL
same,TG,24 h,101.6 mg/dL
same,TP,24 h,5.6 g/dL
same,gamma-GTP,24 h,1 IU/L
